Data taken from patent US20080234199A1, “Chemical Compounds” (Smithkline Beecham Corporation, priority 2005, published 2008).

| melting point | SMILES |
| --- | --- |
| 280 to 281 °C | CCC(=C(c1ccc(O)cc1)c1ccc(O)cc1)c1ccc(/C=C/C(=O)O)cc1 [Example 1, (2E)-3-{4-[1-ethyl-2,2-bis(4-hydroxyphenyl)ethenyl]phenyl}-2-propenoic acid] |
| 158 to 159 °C | CCC(=C(c1ccc(O)cc1)c1ccc(O)cc1)c1ccc(OCCO)c(OC)c1 [Example 27, 4,4′-{2-[4-[(2-hydroxyethyl)oxy]-3-(methyloxy)phenyl]-1-butene-1,1-diyl}diphenol] |
